Assay [1] concerns HCT-116 (Human colorectal cells). Kind of assay: MTT cytotoxicity assay, HCT-116. The assay is classed as cell-based. The conditions noted are these: MTT, 48 h, no irradiation, mean ± SD of three experiments. On the procedure:
(§1) Cell Lines. The following in vitro human cancer cell lines were used: HCT-116 (Human colorectal cells), human KB (human nasopharyngeal carcinoma cells), MGC-803 (human lung adenocarcinoma cell line), HUVEC (Human Umbilical Vein Endothelial Cells). The cell lines (HCT-116, KB, MGC-803 and HUVEC) were purchased from the Cell Resource Center of Shanghai Institutes for Biological Sciences, the Academy of Sciences of China.
(§2) Cell Culture. HCT-116, human KB, MGC-803 and HUVEC cells were cultured in Dulbecco Modified Eagle Medium (DMEM; HyClone, Los Angeles, CA, USA), containing 4.0 mM L-Glutamine and 4500 mg/L Glucose, supplemented with 10% (v/v) foetalbovine serum (FBS; HyClone). The cell culturemedia was supplemented with penicillin/streptomycin at 100 Units/mL as adherent monolayers. Cell cultures were kept in a humidified incubator with 5% CO2 at 37 °C. Stock solutions were prepared in dimethyl sulfoxide (DMSO) and further dilutions were made with fresh culture medium. The concentration of DMSO in the final culture medium was 1%, which had no effect on the cell viability.
(§3) MTT Assay. Chemosensitivity was assessed using 3-(4,5-dimethylthiazol-2-yl)-2,5-diphenyl tetrazolium bromide (MTT) assay. Briefly, exponentially growing HCT-116 (3000–4000 cells/well), human KB (2000–3000 cells/well) and MGC 803 (2000–3000 cells/well) were seeded into 96-well plates and treated with indicated concentrations of samples for 48 h, and then […] of MTT (10 mg/mL) was added. After incubation for 4 h at 37 °C, the purple formazan crystals (i.e., a reduced form of MTT) generated from viable cells were dissolved by adding 100 μL DMSO in each well. The plates were swirled gently for 10 min to dissolve the precipitate, and quantified by measuring the optical density (OD) of the plates at a wavelength of 490 nm on plate reader (TECAN infinite M1000). Each concentration was repeated in three wells and the same experimental conditions were provided for all compounds and MTT analysis was repeated three times for each cell line.
On the technique in general: Formazan colour is commonly taken as a measure of viable cells.

For assay [2], the system named is HUVEC (Human Umbilical Vein Endothelial Cells). Kind of assay: MTT cytotoxicity assay, HUVEC normal cells. It is filed as cell-based. The conditions noted are these: no irradiation, mean ± SD of three experiments. On the procedure: as §1, §2, §3
In assay [3] the test system is human KB (human nasopharyngeal carcinoma cells). Kind of assay: MTT cytotoxicity assay, human KB. The assay is classed as cell-based. The conditions noted are these: 48 h, no irradiation, mean ± SD of three experiments. The protocol: as §1, §2, §3
The subject of a further assay is CT-DNA. Kind of assay: Spectrofluorimetric titration with CT-DNA (Stern-Volmer and binding constants). Further details: species or system calf. To be noted: from F0/F-1 vs [DNA]; Tris-HCl buffer pH 7.2. On the procedure: The DNA binding properties of compounds 8a–8j were evaluated based on their affinity or interaction with CT-DNA, measured with fluorescence spectrometric titration.
The calibration curve for determination of DNA was constructed by adding different proportion of DNA to a 2.0 × 10^−3 M compound 8j solution (pH = 7.2 Tris-HCl buffer). […] [Q] is the concentration of quencher. KSV is the Stern-Volmer constant and KQ is the bimolecular quenching rate constant. τ0 is the lifetime of the fluorophore in the absence of quencher and for most biomolecules τ0 is about 10^−8 s. The Stern-Volmer constant, KSV, for compound 8j has been determined from the plot of F0/F-1 vs. [DNA] (see Figure 2) and found to be 5.11 × 10^2 M^−1.
When small molecules binding independently to a set of equivalent sites on a macromolecule, the equilibrium between free and bound molecules is given by the equation [28]: (2) lg (F0/F-1) = lgKb + nlg[Q] where Kb and n are the binding constant and the number of binding sites, respectively, which could be got from the curve of lg(F0/F-1) vs. lg[Q]. The plot of lg(F0/F-1) vs. lg[DNA] has been shown in Figure 3 for compound 8j and indicates a simple binding process for the compound.
All fluorescence experiments were carried out on a Perkin-Elmer LS50B luminescence spectrometer. Fluorescence spectra were measured at rt using quartz cells of 1cm path. To the solutions of the drugs (2.0 × 10^−3 M) in 2.5 mL Tris-HCl buffer (pH = 7.2) were added aliquots of CT-DNA (2.0 × 10^−3 M) solution containing drugs (2.0 × 10^−3 M) in 2.5 mL Tris-HCl buffer (pH = 7.2). This operation ensured that the concentration of CT-DNA increased gradually from 0 to 360 µM, while the concentrations of drugs were kept constant. The mixing was achieved by stirring for 10min. Then, the corresponding fluorescence spectra were measured (ex 325 nm, ex/em 1.5 nm/1.5 nm). Binding constants were derived from the modified.

The test system of assay [4] is MGC-803 (human lung adenocarcinoma cell line). Kind of assay: MTT cytotoxicity assay, MGC-803. It is filed as cell-based. The conditions noted are these: 48 h, no irradiation, mean ± SD of three experiments. The protocol:
as §1, §2, §3

The test system of another assay is HCT-116 cells. Kind of assay: Apoptosis and cell cycle analysis by flow cytometry (PI staining). It is filed as cell-based, human. To be noted: HCT-116, 48 h at IC50 concentration; untreated cells 35.32%. The protocol:
Compared to the control (untreated cells), changes in the cell cycle distribution of treated HCT-116 cells were evident.
Figure 6 Inhibition of cell cycle progress in HCT-116 cells treated with compounds 8d, 8f, 8c and 8j for 48 h. Cells were fixed with ethanol and stained with PI. Cell cycle distribution was analyzed by flow cytometry. First peak represents sub-G1 peak, which was taken as the fraction of the apoptotic cell population. TEXT PRINTED IN THE PICTURE: 8d: Diploid: 100.00%; Dip G1: 87.24 % at 74.84; Dip G2: 7.42 % at 147.44; Dip S: 5.34 % | 8f: Diploid: 100.00%; Dip G1: 74.25 % at 73.13; Dip G2: 10.86 % at 144.07; Dip S: 14.89 % | 8c: Diploid: 100.00%; Dip G1: 82.72 % at 72.85; Dip G2: 6.28 % at 143.51; Dip S: 11.00% | 8j: Diploid: 100.00%; Dip G1: 15.12 % at 45.10; Dip G2: 52.47 % at 88.84; Dip S: 32.40%; Apoptosis: 4.01 % Mean: 33.84 | Control (−): Diploid: 100.00%; Dip G1: 35.32 % at 52.60; Dip G2: 19.20 % at 103.62; Dip S: 45.84% DOUBTS OF THE COPYIST ABOUT THIS PICTURE: Print is small throughout, so 3, 5, 6, 8 and 9 cannot be told apart with certainty in the values below; best readings are given. / 8d, Dip G1: 87.24 % at 74.84, the 8s uncertain / 8d, Dip S: 5.34, the 5 and 3 uncertain / 8f, Dip G2: 10.86 % at 144.07, the 8 and 6 uncertain / 8f, Dip S: 14.89, the 8 and 9 uncertain / 8c, Dip G1: 82.72 % at 72.85, the 8s and 5 uncertain / 8c, Dip G2: 6.28 % at 143.51, the 6, 8, 3 and 5 uncertain / 8j, Dip G2: 52.47 % at 88.84, the 5 and 8s uncertain / 8j, Apoptosis: 4.01 % Mean: 33.84, the 3s and 8 uncertain / Control (−), Dip G1: 35.32 % at 52.60, the 3s, 5s and 6 uncertain / Control (−), Dip G2: 19.20 % at 103.62, the 9, 3 and 6 uncertain / Control (−), Dip S: 45.84, the 5 and 8 uncertain / Control (−) is an untreated control, not a compound; it is included because results are printed with it. / G2/G1: 1.97 and %CV, printed in every plot, are left out as fit parameter and statistic.
Apoptosis was quantified by assessing the fraction of cells with sub-G1 DNA content by flow cytometry. The cells lines were treated with indicated concentrations of compounds […]. After incubated for 48 h, cells were washed twice with ice-cold PBS, fixed and permeabilized with ice-cold 70% ethanol at −20 °C overnight. The cells were treated with 100 μg/mL RNase A at 37 °C for 30 min after washed with ice-cold PBS, and finally stained with 1 mg/mL propidium iodide (PI) in the dark at 4 °C for 30 min. Analysis was performed with the system software (Cell Quest; BD Biosciences, Franklin Lakes, NJ, USA).
In general terms: Flow cytometry measures light scatter and fluorescence of single cells or particles in a stream.

Setting [5] is: Homo sapiens, HCT-116, light or radiation study.
Setting [6] is: Homo sapiens, HUVEC, light or radiation study.
Where [7] appears, read: Homo sapiens, light or radiation study.
[8] abbreviates: Homo sapiens, MGC-803, light or radiation study.

As usually defined, the IC50 is the concentration that gives 50% inhibition. Higher therefore signals weaker potency. Take `Cc1cc(=O)oc2cc(O)ccc12` [Compound 2, 7-Hydroxy-4-methyl-2H-chromen-2-one, reference compound]: the IC50 in assay [1] (setting [5]) was greater than 100 µM; in assay [2] (setting [6]), greater than 100 µM; in assay [3] (setting [7]) it was greater than 50 µM; in assay [4] (setting [8]), greater than 100 µM. In addition, in the assay with CT-DNA, the “KSV (Stern-Volmer constant)” value amounted to 442 M⁻¹.
Consider `CCOP(=O)(OCC)C(NC(=O)CCOc1ccc2c(C)cc(=O)oc2c1)c1ccc(Cl)cc1` (stereo not drawn) [Compound 8d, Diethyl(3-(4-methyl-2-oxo-2H-chromen-7-yloxy)propanamido)(4-chlorophenyl)methylphospho-nate], for which the 50% inhibitory concentration (IC50) in assay [1] was 86.2 ± 1.86 µM; in assay [2], greater than 100 µM; in assay [3], 7.8 ± 5.36 µM; in assay [4], 76.9 ± 3.89 µM. Moreover, the G1-phase population in the assay on HCT-116 cells is 87.24%. In addition, in the assay on CT-DNA, the “KSV (Stern-Volmer constant)” value was found to be 429 M⁻¹.
As for `CCOP(=O)(OCC)C(NC(=O)CCOc1ccc2c(C)cc(=O)oc2c1)c1ccc2ccccc2c1` (stereo not drawn) [Compound 8i, Diethyl(3-(4-methyl-2-oxo-2H-chromen-7-yloxy)propanamido)(naphthalen-2-yl)methylphosph-onate], the 50% inhibitory concentration (IC50) is 38.9 ± 0.04 µM in assay [1], greater than 100 µM in assay [2] and 41.5 ± 2.86 µM in assay [4]. For the same compound, the “KSV (Stern-Volmer constant)” value with CT-DNA turned out to be 18100 M⁻¹.
Turning to `CCOP(=O)(OCC)C(NC(=O)CCOc1ccc2c(C)cc(=O)oc2c1)c1ccc(Br)cc1` (stereo not drawn) [Compound 8g, Diethyl(3-(4-methyl-2-oxo-2H-chromen-7-yloxy)propanamido)(4-bromophenyl)methylphosph-onate], the IC50 was 88.5 ± 4.62 µM in assay [1], greater than 100 µM in assay [2], 7.27 ± 6.18 µM in assay [3] and 85.6 ± 2.83 µM in assay [4]. The “KSV (Stern-Volmer constant)” value with CT-DNA was found to be 410 M⁻¹.
In the case of `CCOP(=O)(OCC)C(NC(=O)CCOc1ccc2c(C)cc(=O)oc2c1)c1ccccc1Cl` (stereo not drawn) [Compound 8c, Diethyl(3-(4-methyl-2-oxo-2H-chromen-7-yloxy)propanamido)(2-chlorophenyl)methylphospho-nate], the IC50 in assay [1] is 88.7 ± 1.69 µM; in assay [2], greater than 100 µM; in assay [3], 33.4 ± 1.2 µM; in assay [4], 79.4 ± 3.82 µM. Moreover, the G1-phase population in the assay with HCT-116 cells amounted to 82.72%. For the same compound, the “KSV (Stern-Volmer constant)” value in the assay with CT-DNA was found to be 481 M⁻¹.
Turning to `O=c1[nH]cc(F)c(=O)[nH]1` [Compound 5-Fu, 5-fluoro-2,4(1H,3H)pyrimidinedione, reference compound], the 50% inhibitory concentration (IC50) in assay [1] (setting [5]) came out at 10.1 ± 2.2 µM; in assay [2] (setting [6]), 56 ± 3.21 µM; in assay [3] (setting [7]) it was 1.23 ± 1.09 µM; in assay [4] (setting [8]) it was 15.3 ± 1.96 µM.
Take `CCOP(=O)(OCC)C(NC(=O)CCOc1ccc2c(C)cc(=O)oc2c1)c1ccccc1` (stereo not drawn) [Compound 8a, Diethyl(3-(4-methyl-2-oxo-2H-chromen-7-yloxy)propanamido)(phenyl)methylphosphonate]: the IC50 in assay [1] is greater than 100 µM; in assay [2] it was greater than 100 µM; in assay [3], greater than 50 µM; in assay [4], greater than 100 µM. The “KSV (Stern-Volmer constant)” value in the assay with CT-DNA turned out to be 340 M⁻¹.
On to `CCOP(=O)(OCC)C(NC(=O)CCOc1ccc2c(C)cc(=O)oc2c1)c1ccccc1Br` (stereo not drawn) [Compound 8e, Diethyl(3-(4-methyl-2-oxo-2H-chromen-7-yloxy)propanamido)(2-bromophenyl)methylphospho-nate], for which the IC50 in assay [1] was 90.5 ± 1.09 µM; in assay [2] it was greater than 100 µM; in assay [3] it was 9.55 ± 0.09 µM; in assay [4] it was 67.5 ± 3.26 µM. The “KSV (Stern-Volmer constant)” value in the assay with CT-DNA came out at 475 M⁻¹.
Taken in the same sequence, the figures for `CCOP(=O)(OCC)C(NC(=O)CCOc1ccc2c(C)cc(=O)oc2c1)c1ccccc1F` (stereo not drawn) [Compound 8b, Diethyl(3-(4-methyl-2-oxo-2H-chromen-7-yloxy)propanamido)(2-fluorophenyl)methylphospho-nate] were greater than 100 µM, greater than 100 µM, greater than 50 µM, greater than 100 µM and 299 M⁻¹.

Source of the values: PMC6331810, “Novel Coumarin-Containing Aminophosphonatesas Antitumor Agent: Synthesis, Cytotoxicity, DNA-Binding and Apoptosis Evaluation” (Molecules, 2015).
